Source: patent publication EP0230023B1, “Pharmaceutical compositions for the enhancement of wound healing” (MARION MERRELL DOW INC., priority 1985, dated 1987)
Values joined by “and” are separate entries in the source; they are usually repeats but may differ in a detail not shown here. Identical values can stand only once.

Columns and labels:
pressure ulcer = assay: Clinical double-blind dose-response trial in pressure ulcers; assay type: in vivo, patients; conditions: for Results: twice daily
Description: Five patients were subjected to a dose-response trial using sucrose octasulfate in water. The test was a double-blind trial with four treatment arms, 0.1, 1.0, or 10mg/ml or placebo (sterile water for irrigation). Patients were entered following debridement of the study pressure ulcer and a gauze sponge was saturated with sucrose octasulfate solution (i.e. sucrose octasulfate in sterile water vehicle) or placebo and packed into the ulcer crater, then covered with biobrane dressing to keep the area moist. Treatments were applied twice daily for a 30 day interval for four patients and for three weeks for the fifth patient.
The patient population was bedridden comatose adults with chronic ulcers having failed with some form of previous treatment(s). The patients were kept on the same ward as they had been during months prior to the trials so nursing care was uniform prior to and during the study. Thus, any response is favourable. The first four cases are nearly uniform in that three of four treatment ulcers were trochanteric.

granulation tissue [1] = assay: Subcutaneous Ivalon sponge implantation, histological analysis of granulation tissue formation; assay type: in vivo, Sprague-Dawley rats; conditions: score on the 0-4 scale; tested in a similar manner to collagen/sucrose octasulfate; potassium salts
Description: By means of subcutaneous implantation of Ivalon sponges the phase of granulation tissue formation in the repair process can be evaluated. Following a vigorous cleanup procedure the sponge material evokes only minimal inflammatory response. Sterile sponges prepared as set forth in Example 12 were injected with a 50 µl suspension of collagen/sucrose octasulfate suspension prepared as in Example 12. […] The sponges were surgically implanted into 350-500 g, male Sprague-Dawley rats. Before the implantation procedure three rats were anesthetized and their dorsal surfaces shaved and wiped with Predodyne (West Chemical Products, Lynbrook, N.Y.). Six 6 mm incisions were cut in groups of two (one on each side of the vertebral column rostrally, centrally and caudally), spaced equi-distant from each other between the pectoral and pelvic girdles on the dorsal surface. At each incision a pocket was made between the panniculus carnosus and the dermis and two sponges inserted into it, one rostrally and the other caudally; a total of 12 sponges were thus implanted in each animal. The position of each test preparation was alternated between the rostral, central and caudal positions to control the variation due to anatomical location. The incisions were closed with 11-mm Michel wound clips (Propper, Long Island City, N.Y.). Seven days following implantation the animals were sacrificed and the sponges surgically removed with their adhered connective tissue capsules. Controls, sponges injected with either PBS or collagen only were treated in a similar manner. In all, approximately 120 sponges per group were used in the study and randomly selected for biochemical and histologic analysis. The sponges were fixed in formalin and embedded in either plastic or Paraplast following dehydration. Sections were stained with hemotocylin and eosin, trichrome, silver or PAS. […] Mesenchymal cell infiltration was also scored on a predetermined scale from 0-4. […] Although the whole sponge area was used for analysis we noted that the most striking differences between the various treatments were evident in the center of the sponge. Therefore, the histologic appearance of the central zone was selected for presentation.

rabbit corneas = assay: Rabbit cornea assay for angiogenesis; assay type: in vivo
Description: This may offer an explanation for the dense vascular bed that characterized the granulation tissue in the in-vivo experiments. Sucrose octasulate at concentrations of 0.1 to 100 µg/ml was encapsulated in Hydron and implanted in rabbit corneas. The method used was that described in Surgery 96:48-54, 1984. The […] solution (sucrose octasulfate or PBS) was mixed with an equal volume of Hydron and allowed to polymerize under reduced pressure. […] Eyes were evaluated at days 1 through 14 post-implantation for gross inflammation and, as described by Hunt, et al, in Surgery 96:48-54, 1984, for angiogenesis. Corneal neovascularization was graded on a scale of 0-4+ (integers only being assigned). Zero denotes a normal eye with no ingrowth on limbal vessels into the corneal stroma; 1+, up to 1 mm of capillary ingrowth in a localized arc adjacent to the injection site; 2+, […] ingrowth; 3+, 2-3 mm ingrowth; and 4+, 3 mm or greater ingrowth in a wide arc along the limbal edge toward the injection site. […] To ascertain that the observed angiogenesis was not secondary to an inflammatory process some eyes with a positive response were removed and stained with H&E and a nonspecific esterase stain as early as two days after implantation.

collagen = assay: Sucrose octasulfate induced collagen fibrillogenesis (stopped-flow turbidity); assay type: biochemical
Text: Sucrose octasulfate-induced collagen fibril formation was studied in a spectrophotometer equipped with a stopped-flow apparatus. […]

granulation tissue [2] = assay: Subcutaneous Ivalon sponge implantation, histological analysis of granulation tissue formation; assay type: in vivo, Sprague-Dawley rats; conditions: no collagen
bone fracture = assay: Repair of bone fractures (fractured ulna, loss of minerals on decalcification, histology); assay type: in vivo, guinea pigs; conditions: for after decalcification / before decalcification: ten days after surgery
Description: The ulnae of 18 guinea pigs were exposed surgically and then fractured at the midshaft, using a very fine dental burr as a saw. The intact radius served as an immobilization splint. The animals were divided into six groups, three in each, according to the treatment at the fracture site, which was as follows: • Group 1. Untreated controls • Group 2. Sucrose octasulfate 1.0 mg/ml instilled at the fracture site with a syringe • Group 3. Sucrose octasulfate 4.0 mg/ml • Group 4. Collagen (a native 0.25% neutral salt solution) • Group 5. Collagen plus sucrose octasulfate 1.0 mg/ml • Group 6. Collagen plus sucrose octasulfate 4.0 mg/ml
The animals were sacrified ten days after surgery, and the fractured bones were dissected and processed for both histologic and biochemical analyses.

[3] = sucrose octasulfate 1 mg/ml at fracture site
[4] = sucrose octasulfate 4 mg/ml at fracture site

Compound: O=S(=O)([O-])OC[C@H]1O[C@@](COS(=O)(=O)[O-])(O[C@H]2O[C@H](COS(=O)(=O)[O-])[C@@H](OS(=O)(=O)[O-])[C@H](OS(=O)(=O)[O-])[C@H]2OS(=O)(=O)[O-])[C@@H](OS(=O)(=O)[O-])[C@@H]1OS(=O)(=O)[O-].[K+].[K+].[K+].[K+].[K+].[K+].[K+].[K+] [Sucrose Octasulfate, potassium sucrose octasulfate]
- Depth (prestudy) (pressure ulcer; Patient 001, 10 mg/ml): 0.5 cm
- Results (pressure ulcer; Patient 001, 10 mg/ml in water, 30 days): no reduction in ulcer depth
- Depth (after treatment) (pressure ulcer; Patient 001, 10 mg/ml, 30 days): 0.5 cm
- Depth (prestudy) (pressure ulcer; Patient 002, 1 mg/ml): 3.0 cm
- Results (pressure ulcer; Patient 002, 1 mg/ml in water, 30 days): reduction in ulcer depth
- Depth (after treatment) (pressure ulcer; Patient 002, 1 mg/ml, 30 days): 1.5 cm
- Depth (prestudy) (pressure ulcer; Patient 003, 0.1 mg/ml): 0.5 cm
- Results (pressure ulcer; Patient 003, 0.1 mg/ml in water, 30 days): some reduction in ulcer depth
- Depth (after treatment) (pressure ulcer; Patient 003, 0.1 mg/ml, 30 days): 0.3 cm
- Depth (prestudy) (pressure ulcer; Patient 005, 10 mg/ml): 2.8 cm
- Results (pressure ulcer; Patient 005, 10 mg/ml in water, three weeks): reduction in ulcer depth
- Depth (after treatment) (pressure ulcer; Patient 005, 10 mg/ml, after 3 weeks of treatment): 1.6 cm
- Sponge (granulation tissue [1]): 4
- extent of angiogenesis (rabbit corneas; 0.1 µg/ml): negative
- No. Positive Responses (rabbit corneas; 0.1 µg/ml in Hydron, 5 corneas implanted): 0
- No. Positive Responses (rabbit corneas; 1 µg/ml in Hydron, 6 corneas implanted): 1
- No. Positive Responses (rabbit corneas; 10 µg/ml in Hydron, 5 corneas implanted): 4
- No. Positive Responses (rabbit corneas; 100 µg/ml in Hydron, 9 corneas implanted): 8
- Angiogenesis (rabbit corneas; grade on scale 0-4+ in rabbit cornea, potassium salts): 4
- angiogenic response (rabbit corneas; implantation of 10 and 100 µg/ml): most potent angiogenic response
- extent of angiogenesis (rabbit corneas; lower concentration, 1.0 g/ml as printed): decreased
- moles of sucrose octasulfate per mole of collagen initiating the reaction (collagen): five
- critical concentration (lower concentration required for initiation of fibrillogenesis of collagen) (collagen; collagen 0.5 mg/ml, pH 7.4): 0.01 mg/ml
- fibrillogenesis at pH 3.0 compared with pH 7.4 (collagen; pH 3.0): Identical results
- time to dissociation of the transient complex (collagen; sucrose octasulfate 0.01 mg/ml, collagen 0.5 mg/ml): ≤ 100 ms
- time of formation of collagen fibrils (collagen; sucrose octasulfate 0.2 mg/ml, collagen 0.5 mg/ml, pH 7.4): 60 to 70 ms and 60 to 75 ms
- hemorrhage in sponge (granulation tissue [2]; 10.0 mg/ml sucrose octasulfate in Hydron): local hemorrhage
- histologic appearance of sponge (granulation tissue) (granulation tissue [2]; 50 µl of Hydron containing either 1.0 mg/ml or 0.1 mg/ml sucrose octasulfate): formation of granulation tissue densely populated with fibroblasts and highly vascularized with new capillary growth
- after decalcification (bone fracture; [3]): 2.20
- before decalcification (bone fracture; [3]): 7.00
- decrease (bone fracture; sucrose octasulfate 1 mg/ml, loss of minerals following decalcification): 4.80 mg
- decrease (bone fracture; sucrose octasulfate 1 mg/ml, percent loss of minerals following decalcification): 68.6%
- after decalcification (bone fracture; [4]): 2.60
- before decalcification (bone fracture; [4]): 5.90
- decrease (bone fracture; sucrose octasulfate 4 mg/ml, loss of minerals following decalcification): 3.30 mg
- decrease (bone fracture; sucrose octasulfate 4 mg/ml, percent loss of minerals following decalcification): 55.9%
